Measured values reported in US8530385B2, “Herbicidal formulations for combinations of dimethylamine and potassium salts of glyphosate” (Donaghys Industries Limited, priority 2007, dated 2013).

Conditions: laboratory conditions; fully loaded with surfactant
Source text: Dimethylamine is a flammable gas and generally provided as an aqueous solution at concentrations of about 40%. As such, it is difficult to obtain highly concentrated salts of glyphosate using only DMA solution as starting material.
In contrast to IPA, DMA has a […] flash and boiling point and supplied as 40% solution.

CNC.O=C(O)CNCP(=O)(O)O [DMA glyphosate, dimethylamine salt of glyphosate]
maximum stable fully loaded concentration of glyphosate: 560 gae/L
